How the values were obtained:
Format in all cases: functional
NCI-H522 = test: Growth inhibition of human NCI-H522 cells incubated for 48 hrs by sulforhodamine B assay; details: NCI-H522, 48 h
NCI-H226 = test: Growth inhibition of human NCI-H226 cells assessed as cell growth at 0.01 uM incubated for 48 hrs by sulforhodamine B assay relative to control; details: NCI-H226, 48 h, read-out: Activity
UACC-62 = test: Growth inhibition of human UACC62 cells assessed as cell growth at 1 uM incubated for 48 hrs by sulforhodamine B assay relative to control; details: UACC-62, 48 h, read-out: Activity
SW-620 = test: Growth inhibition of human SW620 cells assessed as cell growth at 100 uM incubated for 48 hrs by sulforhodamine B assay relative to control; details: SW-620, 48 h, read-out: Activity
CCRF-CEM [1] = test: Growth inhibition of human CCRF-CEM cells assessed as cell growth at 0.1 uM incubated for 48 hrs by sulforhodamine B assay relative to control; details: read-out: Activity
786-0 [2] = test: Growth inhibition of human 786-0 cells assessed as cell growth at 100 uM incubated for 48 hrs by sulforhodamine B assay relative to control; details: 786-0, 48 h, read-out: Activity
M14 = test: Growth inhibition of human M14 cells assessed as cell growth at 0.01 uM incubated for 48 hrs by sulforhodamine B assay relative to control; details: M14, 48 h, read-out: Activity
HT-29 = test: Growth inhibition of human HT-29 cells assessed as cell growth at 1 uM incubated for 48 hrs by sulforhodamine B assay relative to control; details: HT-29, 48 h, read-out: Activity
CCRF-CEM [3] = test: Growth inhibition of human CCRF-CEM cells assessed as cell growth at 100 uM incubated for 48 hrs by sulforhodamine B assay relative to control; details: read-out: Activity
U-251 = test: Growth inhibition of human U251 cells assessed as cell growth at 100 uM incubated for 48 hrs by sulforhodamine B assay relative to control; details: U-251, 48 h, read-out: Activity
IGROV-1 = test: Growth inhibition of human IGROV1 cells assessed as cell growth at 1 uM incubated for 48 hrs by sulforhodamine B assay relative to control; details: IGROV-1, 48 h, read-out: Activity
OVCAR-4 = test: Growth inhibition of human OVCAR4 cells incubated for 48 hrs by sulforhodamine B assay; details: OVCAR-4, 48 h
MDA-MB-468 = test: Growth inhibition of human MDA-MB-468 cells assessed as cell growth at 0.01 uM incubated for 48 hrs by sulforhodamine B assay relative to control; details: MDA-MB-468, 48 h, read-out: Activity
A549 = test: Growth inhibition of human A549/ATCC cells incubated for 48 hrs by sulforhodamine B assay; details: A549, 48 h
K562 = test: Growth inhibition of human K562 cells incubated for 48 hrs by sulforhodamine B assay; details: K562, 48 h
RPMI-8226 = test: Growth inhibition of human RPMI8226 cells assessed as cell growth at 0.01 uM incubated for 48 hrs by sulforhodamine B assay relative to control; details: RPMI-8226, 48 h, read-out: Activity
CAKI-1 = test: Growth inhibition of human Caki1 cells assessed as cell growth at 0.01 uM incubated for 48 hrs by sulforhodamine B assay relative to control; details: CAKI-1, 48 h, read-out: Activity
ACHN = test: Growth inhibition of human ACHN cells incubated for 48 hrs by sulforhodamine B assay
OVCAR-8 = test: Growth inhibition of human OVCAR8 cells assessed as cell growth at 0.01 uM incubated for 48 hrs by sulforhodamine B assay relative to control; details: OVCAR-8, 48 h, read-out: Activity
COLO 205 [4] = test: Growth inhibition of human COLO205 cells assessed as cell growth at 1 uM incubated for 48 hrs by sulforhodamine B assay relative to control; details: COLO 205, 48 h, read-out: Activity
786-0 [5] = test: Growth inhibition of human 786-0 cells incubated for 48 hrs by sulforhodamine B assay; details: 786-0, 48 h
COLO 205 [6] = test: Growth inhibition of human COLO205 cells assessed as cell growth at 0.1 uM incubated for 48 hrs by sulforhodamine B assay relative to control; details: COLO 205, 48 h, read-out: Activity
UO-31 = test: Growth inhibition of human UO31 cells assessed as cell growth at 0.01 uM incubated for 48 hrs by sulforhodamine B assay relative to control; details: UO-31, 48 h, read-out: Activity
SF-268 = test: Growth inhibition of human SF268 cells incubated for 48 hrs by sulforhodamine B assay; details: SF-268, 48 h
MCF7 = test: Growth inhibition of human MCF7 cells assessed as cell growth at 1 uM incubated for 48 hrs by sulforhodamine B assay relative to control; details: MCF7, 48 h, read-out: Activity
SNB-75 = test: Growth inhibition of human SNB75 cells assessed as cell growth at 0.1 uM incubated for 48 hrs by sulforhodamine B assay relative to control; details: SNB-75, 48 h, read-out: Activity
SK-MEL-28 = test: Growth inhibition of human SK-MEL-28 cells assessed as cell growth at 0.01 uM incubated for 48 hrs by sulforhodamine B assay relative to control; details: SK-MEL-28, 48 h, read-out: Activity
SF-295 = test: Growth inhibition of human SF295 cells assessed as cell growth at 1 uM incubated for 48 hrs by sulforhodamine B assay relative to control; details: SF-295, 48 h, read-out: Activity
HOP-62 = test: Growth inhibition of human HOP62 cells incubated for 48 hrs by sulforhodamine B assay; details: HOP-62, 48 h
[7] = read-out: LC50 (the source's name)
[8] = read-out: pLC50 (the source's name) (converted)

Question: What does the source list for c1ccc2[nH]c(-c3ccc(-c4nccc5c4[nH]c4ccccc45)cc3)nc2c1?
Answer: GI50 (NCI-H522; read-out: GI50): 2.06 µM; CC50 (NCI-H522; [7]): > 1 µM; TGI (NCI-H522; read-out: TGI): 5.04 µM; GI50 (NCI-H522; read-out: pGI50 (converted)): 2.04 µM; CC50 (NCI-H522; [8]): > 100 µM; TGI (NCI-H522; read-out: pTGI (converted)): 5.01 µM; growth at 0.01 µM (NCI-H226): 93%; growth at 1 µM (UACC-62): 80%; growth at 100 µM (SW-620): 33%; growth at 0.1 µM (CCRF-CEM [1]): 102%; growth at 100 µM (786-0 [2]): 70%; growth at 0.01 µM (M14): 93%; growth at 1 µM (HT-29): 106%; growth at 100 µM (CCRF-CEM [3]): 29%; growth at 100 µM (U-251): 75%; growth at 1 µM (IGROV-1): 102%; GI50 (OVCAR-4; read-out: GI50): 2.27 µM; TGI (OVCAR-4; read-out: TGI): 7.75 µM; GI50 (OVCAR-4; read-out: pGI50 (converted)): 2.29 µM; CC50 (OVCAR-4; [8]): > 100 µM; TGI (OVCAR-4; read-out: pTGI (converted)): 7.76 µM; growth at 0.01 µM (MDA-MB-468): 90%; GI50 (A549; read-out: GI50): 4.15 µM; LC50 (concentration killing 50% of starting cells) (A549; read-out: LC50): 7.98 µM; GI50 (A549; read-out: pGI50 (converted)): 4.17 µM; LC50 (concentration killing 50% of starting cells) (A549; read-out: pLC50 (converted)): 79.4 µM; TGI (A549; read-out: pTGI (converted)): 18.6 µM; GI50 (K562; read-out: GI50): 2.33 µM; CC50 (K562; [7]): 4.24 µM; TGI (K562; read-out: TGI): 5.47 µM; GI50 (K562; read-out: pGI50 (converted)): 2.34 µM; CC50 (K562; [8]): 42.7 µM; TGI (K562; read-out: pTGI (converted)): 5.5 µM; growth at 0.01 µM (RPMI-8226): 106%; growth at 0.01 µM (CAKI-1): 91%; GI50 (ACHN; read-out: GI50): 2.05 µM; CC50 (ACHN; [7]): 8.46 µM; TGI (ACHN; read-out: TGI): 4.17 µM; GI50 (ACHN; read-out: pGI50 (converted)): 2.04 µM; CC50 (ACHN; [8]): 8.51 µM; TGI (ACHN; read-out: pTGI (converted)): 4.17 µM; growth at 0.01 µM (OVCAR-8): 100%; growth at 1 µM (COLO 205 [4]): 93%; GI50 (786-0 [5]; read-out: GI50): 2.24 µM; CC50 (786-0 [5]; [7]): 3.83 µM; TGI (786-0 [5]; read-out: TGI): 6.3 µM; GI50 (786-0 [5]; read-out: pGI50 (converted)): 2.24 µM; CC50 (786-0 [5]; [8]): 38 µM; TGI (786-0 [5]; read-out: pTGI (converted)): 6.31 µM; growth at 0.1 µM (COLO 205 [6]): 97%; growth at 0.01 µM (UO-31): 89%; GI50 (SF-268; read-out: GI50): 2.89 µM; CC50 (SF-268; [7]): 8.98 µM; GI50 (SF-268; read-out: pGI50 (converted)): 2.88 µM; CC50 (SF-268; [8]): 89.1 µM; TGI (SF-268; read-out: pTGI (converted)): 10.2 µM; growth at 1 µM (MCF7): 91%; growth at 0.1 µM (SNB-75): 78%; growth at 0.01 µM (SK-MEL-28): 96%; growth at 1 µM (SF-295): 94%; GI50 (HOP-62; read-out: GI50): 2.8 µM; LC50 (concentration killing 50% of cells) (HOP-62; read-out: LC50): 5.31 µM; GI50 (HOP-62; read-out: pGI50 (converted)): 2.82 µM; LC50 (concentration killing 50% of cells) (HOP-62; read-out: pLC50 (converted)): 53.7 µM; TGI (HOP-62; read-out: pTGI (converted)): 10.7 µM

Question: Which results are given for c1ccc2c3c([nH]c2c1)C(c1ccc(C2NCCc4c2[nH]c2ccccc42)cc1)NCC3 (racemic)?
Answer: CC50 (NCI-H522; [7]): 5.21 µM; GI50 (NCI-H522; read-out: pGI50 (converted)): 0.417 µM; CC50 (NCI-H522; [8]): 5.25 µM; TGI (NCI-H522; read-out: pTGI (converted)): 1.48 µM; growth at 0.01 µM (NCI-H226): 97%; growth at 1 µM (UACC-62): 43%; growth at 100 µM (SW-620): 87%; growth at 0.1 µM (CCRF-CEM [1]): 104%; growth at 100 µM (786-0 [2]): -85%; growth at 0.01 µM (M14): 92%; growth at 1 µM (HT-29): 16%; growth at 100 µM (CCRF-CEM [3]): 68%; growth at 100 µM (U-251): 92%; growth at 1 µM (IGROV-1): 70%; GI50 (OVCAR-4; read-out: GI50): 1.14 µM; CC50 (OVCAR-4; [7]): 5.61 µM; TGI (OVCAR-4; read-out: TGI): 2.53 µM; GI50 (OVCAR-4; read-out: pGI50 (converted)): 1.15 µM; CC50 (OVCAR-4; [8]): 5.62 µM; TGI (OVCAR-4; read-out: pTGI (converted)): 2.51 µM; growth at 0.01 µM (MDA-MB-468): 95%; GI50 (A549; read-out: GI50): 1.1 µM; TGI (A549; read-out: TGI): 2.54 µM; GI50 (A549; read-out: pGI50 (converted)): 1.1 µM; TGI (A549; read-out: pTGI (converted)): 2.51 µM; GI50 (K562; read-out: GI50): 2.44 µM; CC50 (K562; [7]): 9.75 µM; TGI (K562; read-out: TGI): 4.88 µM; GI50 (K562; read-out: pGI50 (converted)): 0.245 µM; CC50 (K562; [8]): 0.977 µM; TGI (K562; read-out: pTGI (converted)): 4.9 µM; growth at 0.01 µM (RPMI-8226): 102%; growth at 0.01 µM (CAKI-1): 90%; CC50 (ACHN; [7]): 4.58 µM; GI50 (ACHN; read-out: pGI50 (converted)): 0.708 µM; CC50 (ACHN; [8]): 4.57 µM; TGI (ACHN; read-out: pTGI (converted)): 2 µM; growth at 0.01 µM (OVCAR-8): 101%; growth at 1 µM (COLO 205 [4]): 48%; GI50 (786-0 [5]; read-out: GI50): 1.74 µM; CC50 (786-0 [5]; [7]): 6.54 µM; TGI (786-0 [5]; read-out: TGI): 3.38 µM; GI50 (786-0 [5]; read-out: pGI50 (converted)): 1.74 µM; CC50 (786-0 [5]; [8]): 6.61 µM; TGI (786-0 [5]; read-out: pTGI (converted)): 3.39 µM; growth at 0.1 µM (COLO 205 [6]): 94%; growth at 0.01 µM (UO-31): 89%; GI50 (SF-268; read-out: GI50): 1.12 µM; CC50 (SF-268; [7]): 5.89 µM; TGI (SF-268; read-out: TGI): 2.57 µM; GI50 (SF-268; read-out: pGI50 (converted)): 1.12 µM; CC50 (SF-268; [8]): 5.89 µM; TGI (SF-268; read-out: pTGI (converted)): 2.57 µM; growth at 1 µM (MCF7): 22%; growth at 0.1 µM (SNB-75): 72%; growth at 0.01 µM (SK-MEL-28): 95%; growth at 1 µM (SF-295): 84%; GI50 (HOP-62; read-out: GI50): 1.31 µM; TGI (HOP-62; read-out: TGI): 2.79 µM; GI50 (HOP-62; read-out: pGI50 (converted)): 1.32 µM; TGI (HOP-62; read-out: pTGI (converted)): 2.82 µM
